Test results: US20040192641A1, “Special preparation of anticancer drugs made by novel nanotechnology” (priority 2003, published 2004)

Columns and labels:
[1] = tested on: peritoneal macrophage; experiment: Phagocytosis of peritoneal macrophage (chick red blood cells); type: in vivo, mice; settings: macrophages with phagocytized chick red blood cells per 100; PK 25 mg/kg i.p. daily 5 days, CY 4.5 mg/kg
Method: (§1) Male mice weight 18-20 g were used in the experiments and were divided into treated (PK) and control groups. The dosage of PK was 25 mg/kg injected intraperitoneally. The control mice were injected with same volume of normal saline. These injections were repeated daily for 5 days, both treated and control group were injected intraperitoneally with CY. The dosage of CY is 4.5 mg/kg.
Added 0.02 ml of 5% washed chick red blood cell suspension to 0.5 ml of the peritoneal exudates. Shook gently to mix and incubate at 37° C. for 5 minutes. Dipped two cover slips, closed to each other, in the above mixture and incubated for 30 minutes for the migration of the macrophages along the cover slips, fixed and stained with Sharma stain. Examined microscopically for:
Phagocytic rate—number of macrophages with phagocytized chick red blood cells per 100 macrophages counted. Concentration of PK and CY is the same as Example 2. Pharmacological effects are as illustrated by the following table.

[2] = tested on: Interleukin-2 (rIL-2); experiment: Effect on Interleukin-2; type: in vivo, mice; settings: PK and CY as in Example 4
Description: The method of determination rIL-2 was as same as Example 4.

[3] = tested on: white blood cells; experiment: White blood cells assay; type: in vivo, mice; settings: time of treatment 10 days
Method: as §1
Action of PK and CY on white blood cells was investigated by means of white blood cells assay. PK protected white blood cells and phagocytosis from the killing effect of CY. The dosage of PK and CY is the same as in Example 4. Time of treatment is 10 days.

[4] = tested on: lymphocytes; experiment: Lymphoblastic transformation, 3H-TdR liquid scintillation assay; type: in vivo, mice; settings: 3H-TdR incorporation; PK and CY as in Example 4
Method: By means of ^3H-TdR liquid scintillation assay technique, the action of PK on lymphoblastic transformation was investigated method:
(1) Experimental procedure of animal is the same as in Example 4.
(2) Lemphoblastic transformation test:
I. Reagents and Conditions for Cell Culture
a. Culture media—RPMI 1640, medium 199 minimal essential medium (Eagle).
b. Buffer—Hepes buffer, the final concentration at 37° C. was 25 mM, to maintain the pH of the medium at 7.31.
c. Serum—generally 15-205 fetal bovine serum was incorporated, for lymphocytes from mice, 5% was used.
d. Gaseous phase—5% CO2 in air.
e. Cell concentration—generally 1-2 c 10^6/ml.
f. Stimulants—20 μl/ml for phytohemagglutinin containing polysaccharide (PHA-M) or 10 μl/ml for polysaccharide-free purified phytohemagglutinin (PHA-P).
II. Measured by Liquid Scintillation
a. The conditions of cell culture are same as above. ^3H-TdR was added after 48 hours of incubation at a final concentration of 1 μCi/ml and continued the incubation for 24 hours.
b. Washed the cells twice with cold normal saline and the erythrocytes were lysed. The intact lymphocytes were again washed once with cold saline. Spun down the lymphocytes and added 2 ml of 10% trichloroacetic acid to precipitate the protein. Washed twice with normal saline. […]
c. Added 4 ml of scintillation fluid to 0.1 ml of the final sample and counted in a liquid scintillation counter. […]

[5] = tested on: stem cells of bone marrow; experiment: Hemopoietic system: CFU-S in mice treated with cyclophosphamide; type: in vivo; settings: mice treated with CY with or without PK
Description: Effects of PK on hemopoietic system were investigated.

[6] = Radiolabelled nanoparticle experiment: circulation of 3H-HHT in blood; type: in vivo, mice
Method: Mice were used in this experiment. […]
After injection of radioactive ^3H-HHT or PK-^3H-HHT-NP, blood-associated radioactivity was determined.
1 ml of sample of blood was ultracentrifuged at 100,000×g for 1 hour. After discarding the supernatant, the sediment was dispersed again by mechanical stirring in 1.5 ml of distilled water. 100 μl of the sediment or supernatant were then added to 10 ml of scintillation liquid solution. After weighing, the radioactivity of the tissue samples was measured by a scintillation counter.

Compound: O=P1(N(CCCl)CCCl)NCCCO1 (centres unmarked) [CY, cyclophosphamide]
- Phagocytic (rate ± SD) [1]: 8.5 ± 0.90
- IL-2 (U/ml) [2]: 47.5 ± 5.5 U/ml
- Phagocytic (rate ± SD) [3]: 6.0 ± 0.70
- CPM ± SD [4]: 600 ± 65 CPM
- Mean (CFU-S ± SD) [5]: 7.6 ± 1.1

Compound: COC(=O)C[C@](O)(CCCC(C)(C)O)C(=O)O[C@@H]1C(OC)=C[C@]23CCCN2CCc2cc4c(cc2[C@H]13)OCO4 [^3H-HHT (free)]
- Circulation 3H-HHT in blood ([6]; 1 hour after administration): 2400 cpm
- Circulation 3H-HHT in blood ([6]; 8 hours after administration): 90 cpm
- Circulation 3H-HHT in blood ([6]; 24 hours after administration): 60 cpm
